Our source for the MIC values is ChEMBL document CHEMBL4477209, “Indole-2-carboxamide-based MmpL3 Inhibitors Show Exceptional Antitubercular Activity in an Animal Model of Tuberculosis Infection” (J Med Chem, 2016).

Converted amounts (≈) assume the structure as drawn.

The subject of experiment [1] is Mycobacterium tuberculosis. Description: Inhibition of MmpL3 in clinical isolates of isoniazid/rifampin resistant Mycobacterium tuberculosis KZN494 after 7 to 14 days by alamar blue assay. In general terms: Resazurin is reduced to fluorescent resorufin, in cell work by metabolically active cells.
In experiment [2] the test system is Mycobacterium tuberculosis. In words: Inhibition of MmpL3 in clinical isolates of isoniazid/rifampin resistant Mycobacterium tuberculosis V2475 after 7 to 14 days by alamar blue assay.
In experiment [3] the test system is Mycobacterium tuberculosis. Description: Inhibition of MmpL3 in clinical isolates of extensively drug resistant Mycobacterium tuberculosis TF274 after 7 to 14 days by alamar blue assay.
Experiment [4] deals with Mycobacterium tuberculosis. Description: Inhibition of MmpL3 in clinical isolates of extensively drug resistant Mycobacterium tuberculosis R506 after 7 to 14 days by alamar blue assay.
The test system of experiment [5] is Mycobacterium tuberculosis H37Rv. In words: Inhibition of MmpL3 TSK54R mutant in Mycobacterium tuberculosis H37Rv assessed as growth inhibition.

`C[C@@H]1[C@H]2C[C@@H](C[C@H]1NC(=O)c1cc3c(F)cc(F)cc3[nH]1)C2(C)C`: the MIC is 12 µM (≈ 3.99 µg/mL) in experiment [1]; 47 µM (≈ 15.6 µg/mL) in experiment [2]; 6 µM (≈ 1.99 µg/mL) in experiment [3]; 12 µM (≈ 3.99 µg/mL) in experiment [4]; 0.0625 to 0.125 µg/mL (≈ 0.188 to 0.376 µM) in experiment [5].
For the molecule `O=C(NC1CCCCCCC1)c1cc2c(Cl)cc(Cl)cc2[nH]1`, the MIC in experiment [2] was found to be 11 µM (≈ 3.73 µg/mL); in experiment [3], 11 µM (≈ 3.73 µg/mL); in experiment [4], 6 µM (≈ 2.04 µg/mL).
Take `C[C@@H]1[C@H]2C[C@@H](C[C@H]1NC(=O)c1cc3c(Cl)cc(Cl)cc3[nH]1)C2(C)C`: the MIC turned out to be 43 µM (≈ 15.7 µg/mL) in experiment [1], 171 µM (≈ 62.5 µg/mL) in experiment [2], 21 µM (≈ 7.67 µg/mL) in experiment [3] and 21 µM (≈ 7.67 µg/mL) in experiment [4].
